From US7628984B2, “Micronutrient formulations for pulmonary and heart health” (Premier Micronutrient Corporation, priority 2005, dated 2009)
Where two headings read alike, the source gives them in different places.

Columns and labels:
[1] = system: intracellular levels of glutathione; settings: cited from earlier work
[2] = cited from earlier work
[3] = system: patients with angiographically proven coronary atherosclerosis; settings: cited from earlier work
[4] = system: diabetes type 2 patients with or without macrovascular complications; settings: 1200 IU/day, 75 patients, 5 months; cited from earlier work
[5] = system: patients with chronic renal failure; settings: 800 IU, 33 patients, 12 weeks, cited from earlier work
[6] = Oral ingestion of α-TS, plasma levels; assay type: in vivo; settings: 800 IU/day, humans
From the text: Also, the oxidative DNA damage produced by oxidized vitamin C could be ameliorated by vitamin E. The form and type of vitamin E used are also important in any clinical trial. […] Selenium is a co-factor of glutathione perodidase, and Se-glutathione peroxidase also acts as an antioxidant. Therefore, selenium supplementation together with other antioxidants is also essential.

adenylate cyclase = settings: cited from earlier work
connexin gene = settings: mammalian cells in culture; cited from earlier work
[7] = system: patients with idiopathic dilated cardiomyopathy; settings: Co-enzyme Q10 33.3 mg thrice/day, 126 patients, 6 y; cited from earlier work
[8] = oral supplementation, human subjects; cited from earlier work
[9] = system: smokers with hypercholesterolemia; settings: 544 IU, 42 patients, 4 months; cited from earlier work
[10] = system: healthy male subjects receiving methionine; settings: Vit. C 2 g, methionine 100 mg/kg, 6 hours; cited from earlier work
[11] = system: patients with high risk for cardiac events; settings: Vitamin E 400 IU, 9,541 patients, follow-up 4.5 y, vs control, cited from earlier work
heavy smokers = settings: 800 IU daily, 10 heavy smokers, 3 weeks, cited from earlier work
[12] = system: patients having coronary angioplasty; settings: cited from earlier work
[13] = system: men (high risk patients with prior cardiac events); settings: 50 mg/day, 1862 men, 6 y, vs placebo, cited from earlier work
[14] = system: 39,910 male health professionals; settings: at least 100 IU per day for at least 2 years vs no vitamin E; cited from earlier work
[15] = system: 11,000 people of age 67 or over; settings: follow up 6 years; cited from earlier work
chickens = settings: cited from earlier work
rabbits = settings: cited from earlier work
male monkeys = settings: vs unsupplemented atherosclerotic-promoting diet; cited from earlier work
[16] = system: patients undergoing angioplasty; settings: 317 patients, 4 weeks before and 6 months after angioplasty, vs placebo, cited from earlier work
[17] = 400 or 800 IU per day, median follow-up 510 days

In the case of `O=C(O)CCCCC1CCSS1` (stereo not drawn) [α-lipoic acid], the “intracellular levels of glutathione” value [1] is given as “increase”.
In the case of `CC(=O)N[C@@H](CS)C(=O)O` [N-acetylcysteine], the “intracellular levels of glutathione” value [1] is listed as “increase” and the “doses that can cause trace metal deficiencies” value ([2]; in vivo) is listed as no less than 1000 mg/day.
For `Cc1c(C)c2c(c(C)c1O)CC[C@@](C)(CCC[C@H](C)CCC[C@H](C)CCCC(C)C)O2` [Vitamin E (d-αT), d-alpha tocopherol], the “Death, non-fatal MI” value ([3]; 400 or 800 IU, 2,002 patients, follow-up 510 d) is given as “reduced”, the “C-reactive protein (and monocyte interleukin-6)” value [4] is given as “lowered” and the LDL oxidation ([5]; listed as Vit. E (d-αT)) is given as “reduced”. The LDL oxidation ([5]; listed as α-tocopherol) was “decreased”.
In the case of `Cc1c(C)c2c(c(C)c1OC(=O)CCC(=O)O)CC[C@@](C)(CCC[C@H](C)CCC[C@H](C)CCCC(C)C)O2` [α-TS, α-tocopherol-succinate], the “plasma levels of α-tocopherol and α-TS” value [6] is given as “increased” and the “action of PGE2 on adenylate cyclase” value (adenylate cyclase) is given as “reduce”.
In the case of vitamin A, the “toxicity after prolonged consumption in adults” value ([2]; daily doses higher than twice the RDA) is given as “liver and skin toxicity” and the “expression of the connexin gene” value (connexin gene) is given as “does not produce such an effect”.
In the case of `COC1=C(OC)C(=O)C(C/C=C(\C)CC/C=C(\C)CC/C=C(\C)CC/C=C(\C)CC/C=C(\C)CC/C=C(\C)CC/C=C(\C)CC/C=C(\C)CC/C=C(\C)CCC=C(C)C)=C(C)C1=O` [Coenzyme Q10], the Cardiac muscle function [7] is listed as “useful in improving” and the “doses with no known toxicity in humans” value ([2]; in vivo) is listed as “up to 300 mg/d”.
For `N[C@@H](CCC(=O)N[C@@H](CS)C(=O)NCC(=O)O)C(=O)O` [glutathione], the “plasma levels of glutathione” value [8] is listed as “failed to significantly increase”.
For `CC(=O)Oc1c(C)c(C)c2c(c1C)CCC(C)(CCC[C@H](C)CCC[C@H](C)CCCC(C)C)O2` (stereo partly drawn) [Vitamin E(α-TA), alpha tocopheryl acetate], the “FMD (endothelial-dependent flow-mediated dilation)” value [9] is listed as “improved”.
In the case of `O=C1O[C@H]([C@@H](O)CO)C(O)=C1O` [Vit. C, ascorbic acid], the “Plasma homocysteine, arterial stiffness” value [10] is listed as “reduced”.
In the case of Vitamin E, the “Death, stroke, non-fatal MI” value [11] is listed as “no effect”, the “Death, stroke, non-fatal MI” value ([11]; listed as vitamin E) is listed as “did not reduce” and the “increase in cardiovascular death” value [3, 17] is listed as 18%. For the same compound, the “lower risk of non-fatal myocardial infarction than the placebo group” value [3, 17] was 77%, the “FMD (endothelial-dependent flow-mediated dilation)” value [9] was “improved” and the “Oxidative stress (levels of oxidative stress markers)” value (heavy smokers) was “increases”. For the same compound, the “Oxidative stress (levels of oxidative stress markers)” value (heavy smokers; listed as vitamin E) was “increased”, the “restenosis, % of patients” value ([12]; 1200 IU daily for 4 months, placebo 50%) was 34.6% and the Stenosis ([12]; 1200 IU, 100 patients, 4 months) was “reduced”. For the same compound, the “C-reactive protein (and monocyte interleukin-6)” value [4] was “reduced”, the “Death, CAD events” value [13] was “no effect” and the “Death, CAD events” value ([13]; listed as vitamin E) was “no significant difference”. The “lower risk of CAD” value [14] was 37%, the “reduction in mortality from CAD” value [15] was 47% and the “development of early aortic atherosclerotic lesions” value (chickens) was “reduce”. The “development of early aortic atherosclerotic lesions” value (rabbits) was “reduce”, the stenosis progression (male monkeys) was “decreased” and the “doses used for short-term clinical studies without adverse effects” value ([2]; in vivo) was “up to 2,000 IU/d”.
For `CC1=C(/C=C/C(C)=C/C=C/C(C)=C/C=C/C=C(C)/C=C/C=C(C)/C=C/C2=C(C)CCCC2(C)C)C(C)(C)CCC1` [BC, β-carotene], the “doses that can cause yellowing of skin and pigment deposits in the eye” value ([2]; reversible upon discontinuation) is listed as no less than 100 mg/day and the “expression of the connexin gene” value (connexin gene) is listed as “enhances”.
For `CC(C)(Sc1cc(C(C)(C)C)c(O)c(C(C)(C)C)c1)Sc1cc(C(C)(C)C)c(O)c(C(C)(C)C)c1` [Probucol], the Restenosis [16] is listed as “probucol reduced” and the Restenosis ([16]; listed as probucol) is listed as “effective in reducing”.
